What is called IC50 is the point on the concentration scale where inhibition reaches its midpoint. For orientation: inhibition means the percentage by which the read-out fell short of the control.

The assay deals with T1, HCV polymerase (Hepatitis C virus genotype 1b, UniProt P26663).
T1 construct: 2.5 pmoles (0.15 μg) HCV polymerase protein in a final volume of 75 μL
Put plainly: HCV polymerase primer/template-directed transcription assay (32P-GTP incorporation, filter binding). It counts as biochemical. The conditions noted are these: for IC50: recombinant HCV polymerase, 30 minutes at 30° C., concentration giving 50% inhibition of polymerase-directed transcription, read-out: IC50. The procedure:
The compounds described herein were tested for activity with HCV polymerase. Recombinant HCV polymerase was tested for its ability to perform primer/template-directed transcription in assays that contained 30 mM tris-HCl pH 7.2, 10 mM MgCl2, 20 mM NaCl, 1 mM Dithiothreitol (DTT), 0.05% Tween-20, 1% glycerol, 5 pmoles biotin-dG12 (primer), 0.5 pmoles poly(rC)300 (template), 1 μM GTP, 0.1-0.3 uCi α-^32P-GTP, and 2.5 pmoles (0.15 μg) HCV polymerase protein in a final volume of 75 μL. Reactions were initiated by addition of enzyme and incubated 30 minutes at 30° C. Reactions were stopped by addition of 33 mM EDTA, and polynucleotide products were collected by filtration through Diethylaminoethyl (DE) Filtermat papers (Wallac). Unincorporated triphosphate was removed by washing the filters with 5% dibasic sodium phosphate. The filters were counted in a Packard Tri-Lux Microbeta scintillation counter (Packard Bioscience, Meriden, Conn.). Compounds to be tested were added at various concentrations, e.g., 1 μm to 50 μm, from stocks in 10% DMSO-water (final DMSO is 1% in reaction).
IC50 values were estimated from the primary cpm data (collected in triplicate) using the formula: cpm (I)=cpm(no inhibitor)(1−([I]/([I]+IC50))). An IC50 value represents the concentration (in μM) of a compound that provides 50% inhibition of polymerase-directed transcription in the above assay. A percent inhibition value is expressed for a compound where it was impractical to calculate an IC50 value with available data. If the IC50 estimated by the above equation was less than 200 nM, it was recalculated using the following equation, which takes into account the enzyme concentration (30 nM) in the assay: cpm(I)=cpm(no inhibitor)(1−((((I+IC50+30e−9)−sqrt(((I+IC50+30e−9)^2)−4×30e−9×I)))/((2)(30e−9))). Curve fitting was performed using the program KaleidaGraph (Synergy Software, Reading, Pa.).

T1 sequence (P26663 2420-3010): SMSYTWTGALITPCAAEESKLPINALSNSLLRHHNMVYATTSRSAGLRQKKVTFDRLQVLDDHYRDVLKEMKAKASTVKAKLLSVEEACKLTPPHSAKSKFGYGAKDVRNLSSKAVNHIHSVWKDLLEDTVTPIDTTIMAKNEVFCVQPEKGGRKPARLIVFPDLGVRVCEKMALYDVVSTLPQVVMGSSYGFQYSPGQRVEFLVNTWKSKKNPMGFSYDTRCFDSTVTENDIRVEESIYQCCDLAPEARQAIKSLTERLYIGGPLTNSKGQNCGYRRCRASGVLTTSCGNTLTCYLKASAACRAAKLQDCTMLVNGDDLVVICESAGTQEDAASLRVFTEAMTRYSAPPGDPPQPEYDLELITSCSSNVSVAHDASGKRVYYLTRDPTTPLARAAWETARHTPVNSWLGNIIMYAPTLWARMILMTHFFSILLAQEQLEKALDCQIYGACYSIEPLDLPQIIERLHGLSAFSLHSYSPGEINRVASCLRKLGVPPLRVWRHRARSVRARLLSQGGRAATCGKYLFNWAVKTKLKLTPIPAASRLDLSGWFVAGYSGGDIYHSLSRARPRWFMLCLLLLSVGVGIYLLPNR

With `Cc1nc(CC2=C(O)CC(CCc3ccc(C(F)F)c(F)c3)(C3CCCC3)OC2=O)n(C)n1` (stereo not drawn) [B(69), 6-Cyclopentyl-6-{2-[4-(difluoromethyl)-3-fluorophenyl]ethyl}-3-[(1,3-dimethyl-1H-1,2,4-triazol-5-yl)methyl]-4-hydroxy-5,6-dihydro-2H-pyran-2-one], the IC50 turned out to be 0.8 µM.
As to `N#CC1(c2ccc(CCC3(C4CCCC4)CC(O)=C(Cc4nc5ncc(Cl)cn5n4)C(=O)O3)cc2F)CCCC1` (stereo not drawn) [A(191), 1-(4-{2-[5-(6-Chloro-[1,2,4]triazolo[1,5-a]pyrimidin-2-ylmethyl)-2-cyclopentyl-4-hydroxy-6-oxo-3,6-dihydro-2H-pyran-2-yl]-ethyl}-2-fluoro-phenyl)-cyclopentanecarbonitrile], the half-maximal inhibitory concentration (IC50) was determined as 0.017 µM.
As to `CC(C)n1c(SC2=C(O)CC(CCC3CCCC3)(C3CCCC3)OC2=O)nc2cc(Cl)ccc21` (stereo not drawn) [C(29), 3-(5-Chloro-1-isopropyl-1H-benzoimidazol-2-ylsulfanyl)-6-cyclopentyl-6-(2-cyclopentyl-ethyl)-4-hydroxy-5,6-dihydro-pyran-2-one], the IC50 is 9.3 µM.
With `COc1ccc(CCC2(C3CCCC3)CC(O)=C(Cc3ccc(-c4csnn4)cc3)C(=O)O2)cc1Cl` (stereo not drawn) [B(05), 6-[2-(3-Chloro-4-methoxy-phenyl)-ethyl]-6-cyclopentyl-4-hydroxy-3-(4-[1,2,3]thiadiazol-4-yl-benzyl)-5,6-dihydro-pyran-2-one], the concentration for half-maximal inhibition (IC50) amounted to 0.13 µM.
`Cc1cc(C)n2nc(CC3C(=O)CC(CCc4cccc(Cl)c4)(C4CCCC4)OC3=O)nc2n1` (stereo not drawn) [B(51), 6-[2-(3-chlorophenyl)ethyl]-6-cyclopentyl-3-[(5,7-dimethyl[1,2,4]triazolo[1,5-a]pyrimidin-2-yl)methyl]dihydro-2H-pyran-2,4(3H)-dione]: the IC50 came out at 0.072 µM.
Turning to `Cc1cc(C)n2nc(CC3=C(O)CC(CCc4ccc(N(C)S(C)(=O)=O)cc4)(C4CCCC4)OC3=O)nc2n1` (stereo not drawn) [A(133), 6-cyclopentyl-3-[(5,7-dimethyl[1,2,4]triazolo[1,5-a]pyrimidin-2-yl)methyl]-4-hydroxy-6-[2-(4-{methyl[methyl(dimethylene)-I^6-sulfanyl]amino}phenyl)ethyl]-5,6-dihydro-2H-pyran-2-one], the IC50 turned out to be 0.072 µM.
`CCC(C#N)(CC)c1c(F)cc(CCC2(C3CCCC3)CC(O)=C(Cc3nc4ncc(C)cn4n3)C(=O)O2)cc1F` (single isomer, unassigned; (+)) [A(263), (+)-2-(4-{2-[2-Cyclopentyl-4-hydroxy-5-(6-methyl-[1,2,4]triazolo[1,5-a]pyrimidin-2-ylmethyl)-6-oxo-3,6-dihydro-2H-pyran-2-yl]-ethyl}-2,6-difluoro-phenyl)-2-ethyl-butyronitrile]: the concentration for half-maximal inhibition (IC50) was 0.007 µM.
Take `COc1ccc(CCC2(C3CCCC3)CC(O)=C(Sc3nc4ccccc4n3C(C)C)C(=O)O2)cc1Cl` (stereo not drawn) [C(44), 6-[2-(3-chloro-4-methoxyphenyl)ethyl]-6-cyclopentyl-4-hydroxy-3-[(1-isopropyl-1H-benzimidazol-2-yl)thio]-5,6-dihydro-2H-pyran-2-one]: the IC50 amounted to 0.18 µM.
For `COC(=O)c1nnc(SC2=C(O)CC(CCc3ccc(OC)c(Cl)c3)(C3CCCC3)OC2=O)n1C` (stereo not drawn) [C(100), methyl 5-({6-[2-(3-chloro-4-methoxyphenyl)ethyl]-6-cyclopentyl-4-hydroxy-2-oxo-5,6-dihydro-2H-pyran-3-yl}thio)-4-methyl-4H-1,2,4-triazole-3-carboxylate], the half-maximal inhibitory concentration (IC50) worked out at 0.032 µM.
Still for that read-out and setting: then `CCc1cc(CCC2(C3CCCC3)CC(=O)CC(=O)O2)ccc1OCCOC` (stereo not drawn) [A(184), 6-Cyclopentyl-6-{2-[3-ethyl-4-(2-methoxy-ethoxy)-phenyl]-ethyl}-dihydro-pyran-2,4-dione], with 0.52 µM; and `CC(C)(C#N)c1c(F)cc(CCC2(C3CCCC3)CC(O)=C(Cc3nc4ncc(Cl)cn4n3)C(=O)O2)cc1F` (single isomer, unassigned; (-)) [A(260), (−)-2-(4-{2-[5-(6-Chloro-[1,2,4]triazolo[1,5-a]pyrimidin-2-ylmethyl)-2-cyclopentyl-4-hydroxy-6-oxo-3,6-dihydro-2H-pyran-2-yl]-ethyl}-2,6-difluoro-phenyl)-2-methyl-propionitrile], with 0.007 µM.
Still for that read-out and setting: then `CCc1ccc(OCCOC)c(CCC2(C3CCCC3)CC(O)=C(Cc3nc4nc(C)cc(C)n4n3)C(=O)O2)c1` (stereo not drawn) [A(177), 6-Cyclopentyl-3-(5,7-dimethyl-[1,2,4]triazolo[1,5-a]pyrimidin-2-ylmethyl)-6-{2-[5-ethyl-2-(2-methoxy-ethoxy)-phenyl]-ethyl}-4-hydroxy-5,6-dihydro-pyran-2-one], with 0.014 µM; and `Cc1cnc2nc(CC3C(=O)CC(CCc4ccc(C(C)(C)C#N)c(F)c4)(C4CCCC4)OC3=O)nn2c1` (racemic) [A(108), 2-(4-{2-[2-Cyclopentyl-5-(6-methyl-[1,2,4]triazolo[1,5-a]pyrimidin-2-ylmethyl)-4,6-dioxo-tetrahydro-pyran-2-yl]-ethyl}-2-fluoro-phenyl)-2-methyl-propionitrile], with 0.003 µM; and `Cc1cnc2nc(CC3=C(O)CC(CCc4ccc(C5(C#N)CCCC5)c(F)c4)(C4CCCC4)OC3=O)nn2c1` (stereo not drawn) [A(190), 1-(4-{2-[2-Cyclopentyl-4-hydroxy-5-(6-methyl-[1,2,4]triazolo[1,5-a]pyrimidin-2-ylmethyl)-6-oxo-3,6-dihydro-2H-pyran-2-yl]-ethyl}-2-fluoro-phenyl)-cyclopentanecarbonitrile], with 0.011 µM.
As for `O=C1CC(=O)OC(CCc2ccc3c(c2)OC(F)(F)C(F)(F)O3)(C2CCCC2)C1` (stereo not drawn) [A(59), 6-Cyclopentyl-6-[2-(2,2,3,3-tetrafluoro-2,3-dihydro-benzo[1,4]dioxin-6-yl)-ethyl]-dihydro-pyran-2,4-dione], the IC50 was 3.2 µM.
Consider `CSc1ccccc1C#CCCC1(C2CCCC2)CC(=O)CC(=O)O1` (stereo not drawn) [F(3), 6-Cyclopentyl-6-[4-(2-methylsulfanyl-phenyl)-but-3-ynyl]-dihydro-pyran-2,4-dione], for which the IC50 turned out to be 8.4 µM.
Turning to `CC(C)c1ccc(CCC2(C3CCCC3)CC(=O)CC(=O)O2)cc1F` (stereo not drawn) [A(64), 6-cyclopentyl-6-[2-(3-fluoro-4-isopropylphenyl)ethyl]dihydro-2H-pyran-2,4(3H)-dione], the 50% inhibitory concentration (IC50) worked out at 4 µM.
For `Cc1csc2nc(CC3=C(O)CC(CCc4ccc(C(F)F)c(F)c4)(C4CCCC4)OC3=O)cc(=O)n12` (stereo not drawn) [B(89), 7-[(6-Cyclopentyl-6-{2-[4-(difluoromethyl)-3-fluorophenyl]ethyl}-4-hydroxy-2-oxo-5,6-dihydro-2H-pyran-3-yl)methyl]-3-methyl-5H-[1,3]thiazolo[3,2-a]pyrimidin-5-one], the half-maximal inhibitory concentration (IC50) was 0.185 µM.
As to `COc1cc(OC)c(CCC2(C3CCCC3)CC(O)=C(Sc3nc4ncc(C)cn4n3)C(=O)O2)cc1Cl` (stereo not drawn) [C(87), 6-[2-(5-chloro-2,4-dimethoxyphenyl)ethyl]-6-cyclopentyl-4-hydroxy-3-[(6-methyl[1,2,4]triazolo[1,5-a]pyrimidin-2-yl)thio]-5,6-dihydro-2H-pyran-2-one], the IC50 stood at 0.028 µM.
Consider `CCC1(C)CC(O)=C(Sc2nc3cc(Cl)ccc3n2C(C)C)C(=O)O1` (stereo not drawn) [C(20), 3-(5-Chloro-1-isopropyl-1H-benzoimidazol-2-ylsulfanyl)-6-ethyl-4-hydroxy-6-methyl-5,6-dihydro-pyran-2-one], for which the inhibition at 50 µM (@ 50 uM compound, given where IC50 was impractical to calculate, read-out: percent inhibition) was 11%.
With `COc1cc(OC)c(CCC2(C3CCCC3)CC(O)=C(Sc3nc(O)cc(C(F)(F)F)n3)C(=O)O2)cc1Cl` (stereo not drawn) [C(74), 6-[2-(5-chloro-2,4-dimethoxyphenyl)ethyl]-6-cyclopentyl-4-hydroxy-3-{[4-hydroxy-6-(trifluoromethyl)pyrimidin-2-yl]thio}-5,6-dihydro-2H-pyran-2-one], the 50% inhibitory concentration (IC50) amounted to 0.099 µM.
For the compound `COc1ccc(CCC2(C3CCCC3)CC(O)=C(SCc3ccccn3)C(=O)O2)cc1Cl` (stereo not drawn) [C(107), 6-[2-(3-chloro-4-methoxyphenyl)ethyl]-6-cyclorpentyl-4-hydroxy-3-[(pyridin-2-ylmethyl)thio]-5,6-dihydro-2H-pyran-2-one], the half-inhibitory concentration (IC50) turned out to be 0.16 µM.
On to `Cc1cc(C)n2nc(CC3=C(O)CC(CCc4ccc([C@@H](C)O)c(F)c4)(C4CCCC4)OC3=O)nc2n1` (stereo in doubt) [B(114), 6-Cyclopentyl-3-(5,7-dimethyl-[1,2,4]triazolo[1,5-a]pyrimidin-2-ylmethyl)-6-{2-[3-fluoro-4-(1-hydroxy-ethyl)-phenyl]-ethyl}-4-hydroxy-5,6-dihydro-pyran-2-one], for which the IC50 is 0.016 µM.
Regarding `O=C1CC(=O)OC(CCc2ccc(-c3nnc(-c4ccccc4)o3)cc2)(C2CCCC2)C1` (stereo not drawn) [A(50), 6-Cyclopentyl-6-{2-[4-(5-phenyl-[1,3,4]oxadiazol-2-yl)-phenyl]-ethyl}-dihydro-pyran-2,4-dione], the IC50 stood at 5.9 µM.

Values taken from patent US7473790B2 (Pfizer Inc., priority 2003, dated 2009).
